Results published in PubChem BioAssay (NCI).
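Tested at 5 concentrations; 48 h exposure; 96-well plates; endpoints linearly interpolated, else capped at highest concentration. TGI: concentration producing complete growth inhibition.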

Experiments:
Experiment in all cases: NCI tumour cell line growth inhibition, 48 h
[1] = system: SN12C renal
[2] = system: UO-31 renal
[3] = system: HL-60(TB) leukemia
[4] = system: LOX IMVI melanoma
[5] = system: MCF7 breast
[6] = system: SF-539 CNS
[7] = system: MDA-MB-231 breast
[8] = system: OVCAR-4 ovarian
[9] = system: HCT-116 colon
[10] = system: OVCAR-5 ovarian
[11] = system: U251 CNS
[12] = system: SK-OV-3 ovarian
[13] = system: CAKI-1 renal
[14] = system: SK-MEL-5 melanoma
[15] = system: SR leukemia
[16] = system: UACC-257 melanoma
[17] = system: NCI-H23 lung
[18] = system: SNB-19 CNS
[19] = system: NCI/ADR-RES ovarian
[20] = system: MDA-N
[21] = system: T-47D breast
[22] = system: SNB-75 CNS
[23] = system: HCC-2998 colon
[24] = system: SF-268 CNS
[25] = system: DU-145 prostate
[26] = system: A498 renal
[27] = system: PC-3 prostate
[28] = system: TK-10 renal
[29] = system: OVCAR-8 ovarian
[30] = system: RXF 393 renal
[31] = system: HCT-15 colon
[32] = system: SW-620 colon
[33] = system: SK-MEL-2 melanoma
[34] = system: K-562 leukemia
[35] = system: MDA-MB-435
[36] = system: CCRF-CEM leukemia
[37] = system: HOP-92 NSCLC
[38] = system: OVCAR-3 ovarian
[39] = system: NCI-H460 lung
[40] = system: HOP-62 NSCLC
[41] = system: NCI-H522 lung
[42] = system: UACC-62 melanoma
[43] = system: MOLT-4 leukemia
[44] = system: 786-0 renal
[45] = system: ACHN renal
[46] = system: M14 melanoma
[47] = system: SF-295 CNS
[48] = system: COLO 205 colon
[49] = system: HS 578T breast
[50] = system: KM12 colon
[51] = system: BT-549 breast
[52] = system: SK-MEL-28 melanoma
[53] = system: MALME-3M melanoma
[54] = system: A549 NSCLC
[55] = system: IGROV1 ovarian
[56] = system: HT29 colon
[57] = system: NCI-H226 lung
[58] = system: RPMI-8226 leukemia

## CC1OC(O[C@H]2CC[C@]3(C)[C@H]4CC=C5[C@@H]6[C@@H](C)[C@H](C)CC[C@]6(C(=O)OC6OC(CO)C(O)C(O)C6O)CC[C@@]5(C(=O)O)[C@]4(C)CC[C@H]3C2(C)C)C(O)C(O)C1O (some centres undefined)
[1]
  TGI: > 100 µM
[2]
  TGI: > 100 µM
[3]
  TGI: > 100 µM
[4]
  TGI: > 100 µM
[5]
  TGI: > 100 µM
[6]
  TGI: > 100 µM
[7]
  TGI: > 100 µM
[8]
  TGI: > 100 µM
[9]
  TGI: > 100 µM
[10]
  TGI: > 100 µM
[11]
  TGI: > 100 µM
[12]
  TGI: > 100 µM
[13]
  TGI: > 100 µM
[14]
  TGI: > 100 µM
[15]
  TGI: > 100 µM
[16]
  TGI: > 100 µM
[17]
  TGI: > 100 µM
[18]
  TGI: > 100 µM
[19]
  TGI: > 100 µM
[20]
  TGI: > 100 µM
[21]
  TGI: > 100 µM
[22]
  TGI: > 100 µM
[23]
  TGI: > 100 µM
[24]
  TGI: > 100 µM
[25]
  TGI: > 100 µM
[26]
  TGI: > 100 µM
[27]
  TGI: > 100 µM
[28]
  TGI: > 100 µM
[29]
  TGI: > 100 µM
[30]
  TGI: > 100 µM
[31]
  TGI: > 100 µM
[32]
  TGI: > 100 µM
[33]
  TGI: > 100 µM
[34]
  TGI: > 100 µM
[35]
  TGI: > 100 µM
[36]
  TGI: > 100 µM
[37]
  TGI: > 100 µM
[38]
  TGI: > 100 µM
[39]
  TGI: > 100 µM
[40]
  TGI: > 100 µM
[41]
  TGI: > 100 µM
[42]
  TGI: > 100 µM
[43]
  TGI: > 100 µM
[44]
  TGI: > 100 µM
[45]
  TGI: > 100 µM
[46]
  TGI: > 100 µM
[47]
  TGI: > 100 µM
[48]
  TGI: > 100 µM
[49]
  TGI: > 100 µM
[50]
  TGI: > 100 µM
[51]
  TGI: > 100 µM

## COc1cc(S(=O)(=O)Nc2nc(-c3ccc(N4C(=O)/C(=C\c5cccs5)N=C4c4ccccc4)cc3)cs2)ccc1Cl
[1]
  TGI: > 100 µM
[2]
  TGI: > 100 µM
[3]
  TGI: > 100 µM
[4]
  TGI: > 100 µM
[5]
  TGI: > 100 µM
[52]
  TGI: > 100 µM
[53]
  TGI: 55.5 µM
[6]
  TGI: > 100 µM
[54]
  TGI: > 100 µM
[7]
  TGI: 56.6 µM
[8]
  TGI: > 100 µM
[9]
  TGI: > 100 µM
[10]
  TGI: > 100 µM
[11]
  TGI: > 100 µM
[12]
  TGI: > 100 µM
[13]
  TGI: > 100 µM
[14]
  TGI: > 100 µM
[15]
  TGI: > 100 µM
[16]
  TGI: > 100 µM
[17]
  TGI: > 100 µM
[18]
  TGI: > 100 µM
[19]
  TGI: > 100 µM
[20]
  TGI: > 100 µM
[21]
  TGI: > 100 µM
[22]
  TGI: > 100 µM
[24]
  TGI: 59 µM
[25]
  TGI: > 100 µM
[26]
  TGI: > 100 µM
[27]
  TGI: > 100 µM
[55]
  TGI: > 100 µM
[28]
  TGI: > 100 µM
[29]
  TGI: > 100 µM
[30]
  TGI: > 100 µM
[56]
  TGI: > 100 µM
[31]
  TGI: > 100 µM
[32]
  TGI: > 100 µM
[33]
  TGI: 64.8 µM
[34]
  TGI: > 100 µM
[35]
  TGI: > 100 µM
[36]
  TGI: > 100 µM
[37]
  TGI: 89.8 µM
[38]
  TGI: > 100 µM
[39]
  TGI: > 100 µM
[40]
  TGI: > 100 µM
[41]
  TGI: 83.8 µM
[42]
  TGI: 65.5 µM
[43]
  TGI: > 100 µM
[44]
  TGI: > 100 µM
[45]
  TGI: > 100 µM
[46]
  TGI: > 100 µM
[47]
  TGI: > 100 µM
[48]
  TGI: > 100 µM
[49]
  TGI: 63.9 µM
[50]
  TGI: > 100 µM
[57]
  TGI: > 100 µM
[51]
  TGI: 83.4 µM

## CC(=O)OC1C[C@@H](C)C2(CC(c3ccoc3)OC2=O)C2CCC(O)C3(CO3)C12CO (some centres undefined)
[1]
  TGI: > 100 µM
[2]
  TGI: > 100 µM
[3]
  TGI: > 100 µM
[4]
  TGI: > 100 µM
[5]
  TGI: > 100 µM
[52]
  TGI: > 100 µM
[53]
  TGI: > 100 µM
[6]
  TGI: > 100 µM
[54]
  TGI: > 100 µM
[7]
  TGI: > 100 µM
[8]
  TGI: > 100 µM
[9]
  TGI: > 100 µM
[10]
  TGI: > 100 µM
[11]
  TGI: > 100 µM
[13]
  TGI: > 100 µM
[14]
  TGI: > 100 µM
[15]
  TGI: > 100 µM
[16]
  TGI: > 100 µM
[17]
  TGI: > 100 µM
[18]
  TGI: > 100 µM
[19]
  TGI: > 100 µM
[20]
  TGI: > 100 µM
[21]
  TGI: > 100 µM
[22]
  TGI: > 100 µM
[23]
  TGI: > 100 µM
[24]
  TGI: > 100 µM
[25]
  TGI: > 100 µM
[26]
  TGI: > 100 µM
[27]
  TGI: > 100 µM
[55]
  TGI: > 100 µM
[28]
  TGI: > 100 µM
[29]
  TGI: > 100 µM
[30]
  TGI: > 100 µM
[56]
  TGI: > 100 µM
[31]
  TGI: > 100 µM
[32]
  TGI: > 100 µM
[33]
  TGI: > 100 µM
[34]
  TGI: > 100 µM
[35]
  TGI: > 100 µM
[36]
  TGI: > 100 µM
[37]
  TGI: > 100 µM
[38]
  TGI: > 100 µM
[39]
  TGI: > 100 µM
[40]
  TGI: > 100 µM
[41]
  TGI: > 100 µM
[58]
  TGI: > 100 µM
[42]
  TGI: > 100 µM
[43]
  TGI: > 100 µM
[44]
  TGI: > 100 µM
[45]
  TGI: > 100 µM
[46]
  TGI: > 100 µM
[47]
  TGI: > 100 µM
[48]
  TGI: > 100 µM
[49]
  TGI: > 100 µM
[50]
  TGI: > 100 µM
[57]
  TGI: > 100 µM
[51]
  TGI: > 100 µM
